Usually melting point stands for the temperature of the solid-liquid transition. Molecule `CC(C)(C)C(COC(N)=O)(NC(=O)C(=O)c1c[nH]c2ccc(Br)cc12)c1c[nH]c2ccc(Br)cc12` (configuration not stated) gave a melting point of 207 °C.

The molecule `O=C1Nc2ccc(C(F)(C(F)(F)F)C(F)(F)F)cc2CN1NCc1cccnc1` yielded a melting point of 159 to 161 °C.

For the molecule `CCCc1c(/C=C/c2ccc(C)cc2)nc2ccc(C(=O)O)cn2c1=O`, the melting point lay within 274 to 275 °C.

Take `COC(=O)c1cc(-n2cnn(Cc3ccc(F)cc3)c2=O)nn1Cc1ccc(OC)cc1`: the melting point is 139 to 140 °C.

Regarding `COC(=O)CCc1ccc(OCCc2nc(-c3ccccc3)oc2C)cc1`, the melting point lay in the range of 50.2 to 51.7 °C.

`CCCc1noc(-c2ncn3c2[C@@H]2CCCN2C(=O)c2c(Cl)cccc2-3)n1` showed a melting point of 176 to 178 °C.

In turn, `CN(CCCN=C(NC#N)c1cc(C(C)(C)C)c(O)c(C(C)(C)C)c1)CCOc1ccc2c(c1)OCO2` gave a melting point of 129 to 130 °C.

Regarding `CCC(N)(P(=O)(O)O)P(=O)(O)O`, the melting point was determined as 282 °C.

`FC(F)(F)c1cc(-c2ccc(Cl)c(Cl)c2)nc2ccnn12`: the melting point was 130 to 131 °C.

`CS(=O)(=O)Nc1ccc(OC2SCC(O)C(O)C2O)cn1` (configuration not stated) registered a melting point of 201 to 204 °C.

In the case of `O=C(Nc1ccc(OCCN2CCOCC2)c2ccccc12)c1cccc(-c2cccnc2)c1`, the melting point fell in the range of 77 to 78 °C.

`CCOC(=O)c1nc2sc(CC)c([N+](=O)[O-])c2c(=O)[nH]1`: the melting point was in the range of 200 to 212 °C.

The molecule `COc1ccc(S(=O)(=O)Nc2cccnc2/C=C/c2ccc(O)cc2)cc1` showed a melting point of 217 to 219 °C.

As for `FC(F)(F)c1cc(CNCc2cc3ccccc3nc2N2CCN(CC3CCCCC3)CC2)cc(C(F)(F)F)c1`, the melting point fell in the range of 54 to 55 °C.

For `O=C1N[C@H](Cc2ccc(C(F)(F)F)cc2)[C@H](c2ccncc2)O1` (racemic), the melting point is 212 to 213 °C.

`Cc1nn2ccccc2c1C(=O)c1cccnc1` yielded a melting point of 89 to 90 °C.

For the molecule `O=C(c1ccc([N+](=O)[O-])cc1Cl)N1CCCCc2sccc21`, the melting point was 131 to 134 °C.

With `CCOC(OCC)c1coc2cc3c(cc2c1=O)OCO3`, the melting point was in the range of 123 to 125 °C.

Molecule `C[Si](C)(C)OC1(C#N)CCOc2c(Cl)cc(Cl)cc21` (configuration not stated) showed a melting point of 77 to 79 °C.

As to `CNCc1ccc(S(C)(=O)=O)c(S(=O)(=O)NC(C)(C)C)c1`, the melting point lay within 76 to 78 °C.

`CCOC(=O)C(C(=O)OCC)=C1CSC2=C1SCCNC2` came in with a melting point of 87 to 89 °C.

`COc1ccc2c(Cc3c(Cl)cncc3Cl)nn3nnnc3c2c1` had a melting point of 275 to 276 °C.

In the case of `NS(=O)(=O)c1ccc(-c2cnn(-c3ccc(F)c(Cl)c3)c(=O)c2-c2ccc(F)cc2)cc1`, the melting point was 208 to 210 °C.

As to `O=C(O)[C@H](Cc1ccc(O)cc1)NC(=O)C1(NC(=O)C2(S)CCCC2)CCCC1`, the melting point was determined as 90 °C.

On to `CCC=C(NC(=O)C1CC1(C)C)C(=O)O` (configuration not stated), for which the melting point lay within 154 to 156 °C.

Molecule `CC1=C(C(=O)CS(=O)(=O)NC(C)C)C(c2cccc([N+](=O)[O-])c2)C(C(=O)OC(C)C)=C(C)N1C` (configuration not stated) yielded a melting point of 67 to 69 °C.

In turn, `Nc1nc2ccc3ccccc3c2s1` displayed a melting point of 258 to 260 °C.

On to `COc1ccc2[nH]c3c([N+](=O)[O-])ccc(Cl)c3c(=O)c2c1`, for which the melting point fell in the range of 262 to 264 °C.

On to `COc1c(C(F)(F)F)cc([N+](=O)[O-])c(NN(C)C)c1[N+](=O)[O-]`, for which the melting point was in the range of 109 to 110 °C.

As for `Cc1cc(-c2ccc(Cl)cc2)nc2c(-c3nc(-c4ccc(S(N)(=O)=O)s4)no3)cnn12`, the melting point is 253 °C.

Molecule `COc1ccc(OC)c2[nH]ccc12` had a melting point of 193 to 195 °C.

For the molecule `Oc1ccc(-c2nnc(Cc3ccc(Oc4ccccc4)cc3)o2)cc1`, the melting point was 202 to 203 °C.

`O=c1ccn(C2CC(O)C(CNC(c3ccccc3)(c3ccccc3)c3ccccc3)O2)c(=O)[nH]1` (configuration not stated) displayed a melting point of 132 to 134 °C.

`CCN1CCCC1=NC(=O)Nc1cccc(Cl)c1` gave a melting point of 122 to 124 °C.

In turn, `CCCn1c(=O)c2c(nc(/C=C/c3ccc(OCC)c(OCC)c3)n2C)n(CCC)c1=O` returned a melting point of 174 °C.

For `O=C(c1ccccc1)N1CC(OCc2ccccc2)C(OCc2ccccc2)C(OCc2ccccc2)C1CO` (configuration not stated), the melting point fell in the range of 104 to 106 °C.

Regarding `COc1ccc(SCC(=O)c2ccccc2)cc1C`, the melting point lay in the range of 41 to 43 °C.

For the molecule `COC(=O)CCCC(=O)c1ccc2c(c1)CCO2`, the melting point was in the range of 80 to 81 °C.

As to `CC1(C)CC(=O)C(S(=O)Cc2ccc(Cl)cc2)=C(O)C1` (configuration not stated), the melting point fell in the range of 144 to 145 °C.

The molecule `NC(=O)c1cc2ccccc2cc1N` had a melting point of 234 to 235 °C.

In the case of `COn1c(C(C)C)nc2c(N)nc3ccccc3c21`, the melting point lay within 217 to 219 °C.

`CCCCCCCCCCCCCCCCCCOc1cc(N(CC(=O)O)CC(=O)O)cc([N+](=O)[O-])c1` registered a melting point of 131 to 134 °C.

`CC(C)(Cc1ccc(Cl)cc1Cl)C(O)(Cn1cncn1)Cn1cncn1` showed a melting point of 126 °C.

On to `Nc1nc(O)c2c(n1)CCCS2`, for which the melting point was above 300 °C.

Molecule `CCC(C)Oc1nc(N)nc2c1ncn2C1C=CC(CO)C1` (configuration not stated) had a melting point of 159 to 161 °C.

As to `Clc1ccc2nc(Cl)c3[nH]c4ccccc4c3c2c1`, the melting point was 265 to 266 °C.

In turn, `C=CCc1cc2c(C)c(C#N)c(=O)oc2c(C)c1O` had a melting point of 163 to 164 °C.

Consider `Cc1ccc(-c2cc(F)c3c(c2)CC(CN)O3)cc1` (configuration not stated), for which the melting point is above 250 °C.

The molecule `c1ccc(-c2ccc3nncn3n2)cc1` displayed a melting point of 138 to 139 °C.

Molecule `C#CCN(Cc1ccc2nc(NC(=O)C(C)(C)C)[nH]c(=O)c2c1)c1ccc(S(=O)(=O)N(C)C)cc1` returned a melting point of 217 to 220 °C.

`CN(C)CCNc1ccc(NCCN(C)C)c2c1C(=O)c1c(O)ccc(O)c1C2=O` had a melting point of 236 to 238 °C.

As for `O=C(O)COC1=C(Cc2ccc3c(Br)cccc3c2)C(=O)CCC1`, the melting point was 234 to 236 °C.

Consider `Cc1cccc(NC(=O)CN2C(=O)c3ccccc3C2=O)c1`, for which the melting point stood at 207 °C.

`C[C@H]1C=CC2=C[C@@H](O)C[C@H](OC(=O)C(C)(C)Oc3ccc(F)cc3)[C@@H]2[C@H]1CC[C@@H]1C[C@@H](O)CC(=O)O1` registered a melting point of 142 to 145 °C.

With `CC(=O)NCC1CN(c2ccc(N3CCN(C4=NC(=O)CS4)CC3)c(F)c2)C(=O)O1` (configuration not stated), the melting point lay in the range of 225 to 227 °C.

In turn, `CCCCNC(=O)Oc1ccc(Oc2ccc(Cl)cc2)cc1` displayed a melting point of 106 to 108 °C.

In turn, `CCC1(CC)NC(C)(C)CN(c2ccccc2)C1=O` showed a melting point of 54 to 56 °C.

`CCCOC(=O)CS(=O)(=O)C=C1SC=CS1` returned a melting point of 141 to 142 °C.

The molecule `O=C(NCC(=O)N(c1ccccc1)c1ccccc1)Nc1cccc(O)c1` had a melting point of 244 °C.

In turn, `OC1CSC(Oc2cncc(-c3ccccc3)c2)C(O)C1O` (configuration not stated) returned a melting point of 169 °C.

As for `CC1(C)CN(CC2Cc3ccccc3O2)c2nc(-c3ccncc3)cc(=O)n2C1` (racemic), the melting point is 147 to 149 °C.

Take `O=C(CC(=O)c1cccn1Cc1ccc(F)cc1)c1ccncn1`: the melting point is 128 to 129 °C.

`OCCn1cc(C(CC2CCCCCC2)=NO)c2c(Cl)cccc21` registered a melting point of 120 to 123 °C.

Turning to `CCCOc1nc2ccc(Br)cc2c(=O)n1CCC`, the melting point fell in the range of 57 to 59 °C.

In the case of `CCc1c(Cl)nc(OCc2ccccc2)nc1OCc1ccccc1`, the melting point is 53 to 54 °C.

In the case of `CCCOc1ccc(CCCOc2ccc3c(c2)C=C(C(=O)O)CCS3(=O)=O)cc1`, the melting point is 168 to 170 °C.

`O=C1CCC(N2C(=O)c3ccc(CNC(=O)c4ccccn4)cc3C2=O)C(=O)N1` (configuration not stated) registered a melting point of 212 to 214 °C.

With `COC(=O)c1cccc2c1C(Cc1ccncc1)(Cc1ccnc(F)c1)c1ccccc1-2` (configuration not stated), the melting point was 144 to 146 °C.

`COc1ccccc1-c1c(C#N)nn(-c2c(Cl)cc(C(F)(F)F)cc2Cl)c1N` registered a melting point of 193 °C.

For `NS(=O)(=O)c1cc2c(s1)S(=O)(=O)C(CCO)CN2` (configuration not stated), the melting point was 158 to 160 °C.

In turn, `NS(=O)(=O)c1ccc(-c2ccc(Cl)n2-c2ccc(Cl)cc2Cl)cc1` yielded a melting point of 186 to 187 °C.

As for `Cc1c(NC(=O)c2ccc(OC[C@@H]3CCCO3)cc2)ccc2cc(CN3CCC(C)(O)CC3)cnc12`, the melting point lay in the range of 169 to 174 °C.

For the molecule `CCCCCNC(=O)c1cn2nc(N3CCN(C(=O)c4ccccc4C(F)(F)F)CC3)ccc2n1`, the melting point was 179 to 180 °C.

In turn, `COc1cc(C(=O)c2ccccc2)cc([N+](=O)[O-])c1OC` returned a melting point of 78 to 80 °C.

Take `O=C(NCc1ccc(F)c(F)c1)c1ccnc(N2CCN(Cc3ccc(F)cc3)C2=O)c1`: the melting point lay in the range of 182 to 183 °C.

For `Cc1c(Br)c(C)c(Cc2ccc(C(C)C)cc2)c2c1CCO2`, the melting point is 95 to 96 °C.

Molecule `COc1cc(C(C)=O)ccc1OCCCN1C2CCC1CC(c1n[nH]c3ccccc13)C2` (configuration not stated) came in with a melting point of 173 to 175 °C.

The molecule `NCc1cccc(Cn2ccc(OCc3ccc(F)cc3F)c(Br)c2=O)c1F` showed a melting point of 160 to 163 °C.

For the molecule `O=C1N(Cc2ncccc2C(F)(F)F)c2c(F)cccc2C12COc1cc3c(cc12)OCCO3` (configuration not stated), the melting point was 241 to 243 °C.

The molecule `COC(=O)c1cccc(C(=O)c2[nH]c3cc(Cl)ccc3c2NC(C)=O)c1` came in with a melting point of 190 to 193 °C.

In the case of `O=C(N[C@H]1CC[C@H](CCN2CCN(c3nccc4c3CCO4)CC2)CC1)c1ccc(C(F)(F)F)cc1`, the melting point amounted to 227 °C.

Molecule `Cc1cc(C)c(-c2cn(C)c3nc(N)n(C)c(=O)c23)c(C)c1` came in with a melting point of 229 to 231 °C.

As to `O=C(N1CCCCC12CCc1ccccc1C2=O)C(F)(F)F` (configuration not stated), the melting point fell in the range of 97 to 100 °C.

With `Cc1ccc(-c2cc3cc(C4=NNC(=O)CC4)ccc3[nH]2)cc1`, the melting point fell in the range of 266 to 268 °C.

In turn, `COc1ccc(C2CNC(=O)N2C)cc1OC1CC2CCC1C2` (configuration not stated) came in with a melting point of 142 to 144 °C.

Consider `CC(C)(C)OC(=O)NC(C(=O)NC1c2cc(C#N)ccc2OC(C)(C)C1O)c1ccccc1` (configuration not stated), for which the melting point was 112 to 130 °C.

In the case of `CC/C(=C\c1cccc(OCc2nc(-c3ccc(C(F)(F)F)cc3)oc2C)c1)Cn1oc(=O)[nH]c1=O`, the melting point is 124 to 125 °C.

The record behind these values is a melting point compilation (Tetko et al.; mined from patent text by program, amines drawn as free bases though some values may be those of a salt).
